Reference: patent publication EP0852148B1, “Products having anti-microbial activity” (SION MICROTEC LTD., priority 1997, dated 1998)
Structures can show the parent of a compound that is named as a salt. Where two headings read alike, the source gives them in different places.

Assays:
[1] = system: Staphylococcus aureus (SA); assay: Inhibition zone on bacterial lawn on agar plate, daily sequential transfer of sample; type: cell-based; details: for Growth Inhibition SA: procedure of Example 1 (cotton gauze)
Description: (§1) A matrix made of cotton gauze 75 mm wide, in accordance with the British Pharmacopoeia, was soaked in 0.5% chlorohexidine gluconate (CHXG) aqueous solution at 25°C and dried by forced hot air at 60°C in a continuous process. The antimicrobial activity of the product was tested on lawns of several bacteria: Staphylococcus aureus (SA), S. epidermidis (SE), Escherichia coli (EC) and Pseudonomas aeruginosa (PA), inoculated on agar plates, by placing a sample of about 2 cm^2 on the surface of the plate, and measurement of the inhibition zone after growth of the bacteria for 18 hours at 37°C. After 24 hours, the sample was passed sequentially to another inoculated agar plate and the inhibition zone measured. This daily transfer procedure continued up to the loss of growth-inhibiting activity.
(§2) The data set forth in the Tables herein is presented as follows: a = no inhibition b = partial growth inhibition under matrix c = total growth inhibition under matrix d = growth inhibition beyond the matrix, but at less than 1 mm E x-y = growth inhibition in mm; x = minimum distance; y = maximum distance.

[2] = system: human immunodeficiency virus type I; details: aqueous solution, in 15 seconds; cited from earlier work
[3] = system: Staphylococcus aureus (SA); assay: Inhibition zone on bacterial lawn on agar plate, daily sequential transfer of sample; type: cell-based; details: procedure of Example 1 (cotton gauze)
Description: as §1, with “activity. The data set forth in the Tables herein is presented as follows: a = no inhibition b = partial growth inhibition under matrix c = total growth inhibition under matrix d = growth inhibition beyond the matrix, but at less than 1 mm E x-y = growth inhibition in mm; x = minimum distance; y = maximum distance.” for “activity.”

[4] = in vivo; cited from earlier work
[5] = system: Staphylococcus aureus (SA); assay: Inhibition zone on bacterial lawn on agar plate, daily sequential transfer of sample; type: cell-based
S. epidermidis (SE) = assay: as above; type: cell-based
Description: as §1, with “The” for “A matrix made of cotton gauze 75 mm wide, in accordance with the British Pharmacopoeia, was soaked in 0.5% chlorohexidine gluconate (CHXG) aqueous solution at 25°C and dried by forced hot air at 60°C in a continuous process. The”
as §2

Escherichia coli (EC) = assay: as above; type: cell-based
Description: as §1, with “The” for “A matrix made of cotton gauze 75 mm wide, in accordance with the British Pharmacopoeia, was soaked in 0.5% chlorohexidine gluconate (CHXG) aqueous solution at 25°C and dried by forced hot air at 60°C in a continuous process. The”
as §2

[6] = system: Pseudonomas aeruginosa (PA); assay: as above; type: cell-based
Description: as §1, §2

[7] = Matrix Nylon, CHXH 0.1% or CHXG 1.0%, hydrochloride
[8] = Matrix Polyethylene, CHXH 0.1% or CHXG 1.0%, hydrochloride
[9] = Matrix Polypropylene, CHXH 0.1% or CHXG 1.0%, hydrochloride
[10] = Matrix Nylon, CHXH 0.1% or CHXG 1.0%
[11] = Matrix Cellular triacetate, CHXH 0.1% or CHXG 1.0%
[12] = Matrix Polyethylene, CHXH 0.1% or CHXG 1.0%
[13] = Matrix Polypropylene, CHXH 0.1% or CHXG 1.0%
[14] = non-woven matrix (polyethylene, viscose and cotton), CHXG Concentration 2 %
[15] = non-woven matrix (polyethylene, viscose and cotton), CHXG Concentration 5 %

**Q.** Which “Growth Inhibition SA” value ([1]; Day 1) does the source give for `CCCCCCCCCCCCCCCC[N+](C)(C)Cc1ccccc1.[Cl-]` [Example 861, Benzyl dimethyl hexocylammonium chloride] here?
**A.** The value was “E 3-5 mm”.

**Q.** What about the “Growth Inhibition SA” value ([1]; Day 2) of the same compound?
**A.** The value was “E 3-4 mm”.

**Q.** What about the “Growth Inhibition SA” value ([1]; Day 3) of the same compound?
**A.** Its value is “E 3-4 mm”.

**Q.** And the “Growth Inhibition SA” value ([1]; Day 4)?
**A.** The value was “E 2-3 mm”.

**Q.** With `[H]/N=C(\N/C(=N/[H])NCCCCCCNC(=N)NC(=N)Nc1ccc(Cl)cc1)Nc1ccc(Cl)cc1` [chlorhexidine] as the compound, how does the “inactivation of human immunodeficiency virus type I” value [2] read?
**A.** Its value is 100%.

**Q.** Which results are given for Bacitracin [Example 846]?
**A.** Growth Inhibition SA ([3]; Day 1): E 4-6 mm; Growth Inhibition SA ([3]; Day 2): E 1-3 mm

**Q.** For `Clc1nc(Cl)nc(Cl)n1` [cyanuric chloric linking group, cyanuric chloride], which LD50 [4] is on record?
**A.** The LD50 was 18 mg/kg.

**Q.** With `N=C(NCCCCCCNC(=N)NC(=N)Nc1ccc(Cl)cc1)NC(=N)Nc1ccc(Cl)cc1` [CHXH, chlorohexidine hydrochloride] as the compound, how does the “Microorganism Growth Inhibition SA” value [5, 7] read?
**A.** The value was “E 3-4 mm”.

**Q.** What about the “Microorganism Growth Inhibition SA” value [5, 8] of the same compound?
**A.** The value was “E 3-4 mm”.

**Q.** What about the “Microorganism Growth Inhibition SA” value [5, 9] of the same compound?
**A.** The value was “E 2-4 mm”.

**Q.** And the “Microorganism Growth Inhibition SE” value (S. epidermidis (SE))?
**A.** Its value is “E 3-4 mm”.

**Q.** And the “Microorganism Growth Inhibition SE” value (S. epidermidis (SE); [10])?
**A.** Its value is “E 2-3 mm”.

**Q.** What about the “Microorganism Growth Inhibition SE” value (S. epidermidis (SE); [8]) of the same compound?
**A.** The value was “E 2 mm”.

**Q.** And the “Microorganism Growth Inhibition SE” value (S. epidermidis (SE); [9])?
**A.** Its value is “E 1-2 mm”.

**Q.** And the “Microorganism Growth Inhibition EC” value (Escherichia coli (EC))?
**A.** Its value is “E 2-4 mm”.

**Q.** What about the “Microorganism Growth Inhibition EC” value (Escherichia coli (EC); [7]) of the same compound?
**A.** The value was “E 2-3 mm”.

**Q.** What about the “Microorganism Growth Inhibition EC” value (Escherichia coli (EC); [8]) of the same compound?
**A.** The value was “E 1-3 mm”.

**Q.** And the “Microorganism Growth Inhibition EC” value (Escherichia coli (EC); [9])?
**A.** The value was “E 1-3 mm”.

**Q.** And the “Microorganism Growth Inhibition PA” value [6]?
**A.** Its value is “E 1-2 mm”.

**Q.** What about the “Microorganism Growth Inhibition SA” value [1] of the same compound?
**A.** Its value is “E 5-6 mm”.

**Q.** Which “Growth Inhibition SA” value ([1]; Day 1) does the source give for “Septabicdidecyl dimethyl ammonium bromide [Example 868]” here?
**A.** Its value is “E 5-6 mm”.

**Q.** What about the “Growth Inhibition SA” value ([1]; Day 2) of the same compound?
**A.** Its value is “E 5-6 mm”.

**Q.** And the “Growth Inhibition SA” value ([1]; Day 3)?
**A.** Its value is “E 4-5 mm”.

**Q.** What about the “Growth Inhibition SA” value ([1]; Day 4) of the same compound?
**A.** The value was “E 3-4 mm”.

**Q.** For `CCCCCCCCCCCCCCCC[n+]1ccccc1.[Cl-]` [Example 844, Cetyl piridinium chloride], which “Growth Inhibition SA” value ([1]; Day 1) is on record?
**A.** Its value is “E 3-4 mm”.

**Q.** And the “Growth Inhibition SA” value ([1]; Day 2)?
**A.** The value was “E 5-6 mm”.

**Q.** And the “Growth Inhibition SA” value ([1]; Day 3)?
**A.** The value was “E 3-4 mm”.

**Q.** And the “Growth Inhibition SA” value ([1]; Day 4)?
**A.** Its value is “E 2-4 mm”.

**Q.** For `N=C(NCCCCCCNC(=N)NC(=N)Nc1ccc(Cl)cc1)NC(=N)Nc1ccc(Cl)cc1` [CHXG, chlorohexidine gluconate], which “Microorganism Growth Inhibition SA” value [5, 11] is on record?
**A.** The value was “E 4-5 mm”.

**Q.** And the “Microorganism Growth Inhibition SA” value [5, 10]?
**A.** The value was “E 3-5 mm”.

**Q.** And the “Microorganism Growth Inhibition SA” value [5, 12]?
**A.** Its value is “E 3-5 mm”.

**Q.** What about the “Microorganism Growth Inhibition SA” value [5, 13] of the same compound?
**A.** Its value is “E 2-5 mm”.

**Q.** What about the “Microorganism Growth Inhibition SA” value [5, 14] of the same compound?
**A.** The value was “E 5-7 mm”.

**Q.** And the “Microorganism Growth Inhibition SA” value [5, 15]?
**A.** The value was “E 4-5 mm”.

**Q.** And the “Microorganism Growth Inhibition SE” value (S. epidermidis (SE); [11])?
**A.** Its value is “E 4 mm”.

**Q.** And the “Microorganism Growth Inhibition SE” value (S. epidermidis (SE); [12])?
**A.** The value was “E 3 mm”.

**Q.** What about the “Microorganism Growth Inhibition SE” value (S. epidermidis (SE); [13]) of the same compound?
**A.** The value was “E 2-3 mm”.

**Q.** What about the “Microorganism Growth Inhibition SE” value (S. epidermidis (SE); [14]) of the same compound?
**A.** Its value is “E 3-5 mm”.

**Q.** And the “Microorganism Growth Inhibition SE” value (S. epidermidis (SE); [15])?
**A.** The value was “E 4-5 mm”.

**Q.** What about the “Microorganism Growth Inhibition EC” value (Escherichia coli (EC); [11]) of the same compound?
**A.** The value was “E 3-4 mm”.

**Q.** And the “Microorganism Growth Inhibition EC” value (Escherichia coli (EC); [10])?
**A.** Its value is “E 2-4 mm”.

**Q.** What about the “Microorganism Growth Inhibition EC” value (Escherichia coli (EC); [12]) of the same compound?
**A.** Its value is “E 2-3 mm”.

**Q.** What about the “Microorganism Growth Inhibition EC” value (Escherichia coli (EC); [13]) of the same compound?
**A.** Its value is “E 2-4 mm”.

**Q.** What about the “Microorganism Growth Inhibition EC” value (Escherichia coli (EC); [14]) of the same compound?
**A.** Its value is “E 2-3 mm”.

**Q.** And the “Microorganism Growth Inhibition EC” value (Escherichia coli (EC); [15])?
**A.** The value was “E 3-4 mm”.

**Q.** And the “Microorganism Growth Inhibition PA” value [6, 11]?
**A.** Its value is “E 1 mm”.

**Q.** What about the “Microorganism Growth Inhibition PA” value [6, 10] of the same compound?
**A.** The value was “d (growth inhibition beyond the matrix, but at less than 1 mm)”.

**Q.** What about the “Microorganism Growth Inhibition PA” value [6, 12] of the same compound?
**A.** The value was “E 1 mm”.

**Q.** And the “Microorganism Growth Inhibition PA” value [6, 14]?
**A.** Its value is “d (growth inhibition beyond the matrix, but at less than 1 mm)”.

**Q.** And the “Microorganism Growth Inhibition PA” value [6, 15]?
**A.** Its value is “E 1-2 mm”.

**Q.** What about the “Growth Inhibition SA” value ([1]; Day 1) of the same compound?
**A.** Its value is “E 4-5 mm”.

**Q.** And the “Growth Inhibition SA” value ([1]; Day 2)?
**A.** Its value is “E 3-4 mm”.

**Q.** What about the “Growth Inhibition SA” value ([1]; Day 3) of the same compound?
**A.** Its value is “E 2-3 mm”.

**Q.** What about the “Growth Inhibition SA” value ([1]; Day 4) of the same compound?
**A.** The value was “E 2-3 mm”.
